Reference: ChEMBL document CHEMBL5291721, “A preclinical secondary pharmacology resource illuminates target-adverse drug reaction associations of marketed drugs” (Nat Commun, 2023)

Columns and labels:
[1] = molecular target: Sodium-dependent noradrenaline transporter (Homo sapiens, UniProt P23975)
[2] = molecular target: T1, Muscarinic acetylcholine receptor M2 (Homo sapiens, UniProt P08172)
T1 sequence (P08172 whole entry): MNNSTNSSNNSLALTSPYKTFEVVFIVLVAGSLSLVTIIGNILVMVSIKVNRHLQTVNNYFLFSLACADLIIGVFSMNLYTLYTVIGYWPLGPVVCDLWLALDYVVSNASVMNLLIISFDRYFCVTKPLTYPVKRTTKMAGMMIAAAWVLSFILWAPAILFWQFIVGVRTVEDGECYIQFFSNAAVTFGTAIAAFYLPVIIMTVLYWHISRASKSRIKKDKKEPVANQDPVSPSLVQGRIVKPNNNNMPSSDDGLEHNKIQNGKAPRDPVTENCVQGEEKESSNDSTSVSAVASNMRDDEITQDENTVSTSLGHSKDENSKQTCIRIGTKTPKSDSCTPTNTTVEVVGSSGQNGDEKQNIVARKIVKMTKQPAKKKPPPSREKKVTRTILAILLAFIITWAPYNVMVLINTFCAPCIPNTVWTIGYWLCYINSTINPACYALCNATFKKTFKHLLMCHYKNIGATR

D(3) dopamine receptor = D(3) dopamine receptor (Homo sapiens, UniProt P35462)
[3] = molecular target: T2, Amine oxidase [flavin-containing] A (Homo sapiens, UniProt P21397); format: functional
T2 sequence (P21397 whole entry): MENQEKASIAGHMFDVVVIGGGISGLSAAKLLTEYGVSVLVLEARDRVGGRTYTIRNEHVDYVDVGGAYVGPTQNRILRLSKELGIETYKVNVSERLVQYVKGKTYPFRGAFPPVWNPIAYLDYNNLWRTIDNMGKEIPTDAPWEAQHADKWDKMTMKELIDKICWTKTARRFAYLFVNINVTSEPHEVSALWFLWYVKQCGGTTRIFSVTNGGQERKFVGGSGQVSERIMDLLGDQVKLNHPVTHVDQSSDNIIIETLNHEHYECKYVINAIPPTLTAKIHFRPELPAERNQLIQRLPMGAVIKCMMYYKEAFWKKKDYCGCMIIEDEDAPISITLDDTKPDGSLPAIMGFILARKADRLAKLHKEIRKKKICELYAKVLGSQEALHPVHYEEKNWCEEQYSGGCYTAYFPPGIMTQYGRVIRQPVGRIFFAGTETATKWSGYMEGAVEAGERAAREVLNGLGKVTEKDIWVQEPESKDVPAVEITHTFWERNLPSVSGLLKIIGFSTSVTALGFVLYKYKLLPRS

[4] = molecular target: T3, Alpha-2A adrenergic receptor (Homo sapiens, UniProt P08913)
T3 sequence (P08913 whole entry): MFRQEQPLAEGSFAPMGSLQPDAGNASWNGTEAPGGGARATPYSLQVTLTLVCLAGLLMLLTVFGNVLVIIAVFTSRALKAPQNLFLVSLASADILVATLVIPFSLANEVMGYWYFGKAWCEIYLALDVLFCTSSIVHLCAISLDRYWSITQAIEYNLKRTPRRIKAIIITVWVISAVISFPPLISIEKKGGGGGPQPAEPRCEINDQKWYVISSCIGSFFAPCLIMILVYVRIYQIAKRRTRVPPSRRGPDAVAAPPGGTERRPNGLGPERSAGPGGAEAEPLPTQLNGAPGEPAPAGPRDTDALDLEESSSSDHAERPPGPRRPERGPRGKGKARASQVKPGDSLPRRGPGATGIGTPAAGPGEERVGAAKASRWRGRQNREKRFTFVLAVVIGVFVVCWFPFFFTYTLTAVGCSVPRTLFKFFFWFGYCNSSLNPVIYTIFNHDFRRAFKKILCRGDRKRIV

Acetylcholinesterase = Acetylcholinesterase (Homo sapiens, UniProt P22303); format: functional
[5] = molecular target: T4, 5-hydroxytryptamine receptor 1A (Homo sapiens, UniProt P08908)
T4 sequence (P08908 whole entry): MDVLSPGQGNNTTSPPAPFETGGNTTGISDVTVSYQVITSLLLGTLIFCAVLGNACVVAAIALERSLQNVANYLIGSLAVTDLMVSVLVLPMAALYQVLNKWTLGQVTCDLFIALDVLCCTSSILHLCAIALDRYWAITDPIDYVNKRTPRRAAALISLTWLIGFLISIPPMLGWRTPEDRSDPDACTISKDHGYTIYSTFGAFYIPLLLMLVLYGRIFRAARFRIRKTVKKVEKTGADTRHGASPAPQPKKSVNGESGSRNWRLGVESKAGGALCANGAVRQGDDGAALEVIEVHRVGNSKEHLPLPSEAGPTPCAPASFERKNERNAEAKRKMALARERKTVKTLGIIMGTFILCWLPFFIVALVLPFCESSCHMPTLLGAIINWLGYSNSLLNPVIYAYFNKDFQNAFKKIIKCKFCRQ

[6] = molecular target: T5, Prostaglandin G/H synthase 1 (Homo sapiens, UniProt P23219); format: functional
Prothrombin = Prothrombin (Homo sapiens, UniProt P00734); format: functional
[7] = molecular target: Vascular endothelial growth factor receptor 2 (Homo sapiens, UniProt P35968); format: functional
[8] = molecular target: Voltage-gated inwardly rectifying potassium channel KCNH2 (Homo sapiens, UniProt Q12809); format: functional; details: read-out: AC50
Thromboxane A2 receptor = molecular target: T6, Thromboxane A2 receptor (Homo sapiens, UniProt P21731); format: functional, cell-based
T6 sequence (P21731 whole entry): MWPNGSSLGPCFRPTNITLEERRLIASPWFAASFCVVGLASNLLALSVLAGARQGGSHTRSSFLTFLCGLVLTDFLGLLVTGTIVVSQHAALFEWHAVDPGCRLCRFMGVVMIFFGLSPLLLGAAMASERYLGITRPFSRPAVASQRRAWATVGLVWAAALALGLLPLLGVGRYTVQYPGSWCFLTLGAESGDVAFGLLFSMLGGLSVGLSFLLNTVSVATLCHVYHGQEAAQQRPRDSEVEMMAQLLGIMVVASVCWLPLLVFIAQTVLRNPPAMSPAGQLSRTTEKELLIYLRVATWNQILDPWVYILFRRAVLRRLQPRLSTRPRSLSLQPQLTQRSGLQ

[9] = molecular target: cGMP-inhibited 3',5'-cyclic phosphodiesterase 3A (Homo sapiens, UniProt Q14432); format: functional
[10] = molecular target: T5, Prostaglandin G/H synthase 1; format: functional; remark: listed apart in the source
[11] = molecular target: 3',5'-cyclic-AMP phosphodiesterase 4A (Homo sapiens, UniProt P27815); format: functional
Also: assay procedure not described here.

Chain of Voltage-gated inwardly rectifying potassium channel KCNH2 (Q12809 whole entry): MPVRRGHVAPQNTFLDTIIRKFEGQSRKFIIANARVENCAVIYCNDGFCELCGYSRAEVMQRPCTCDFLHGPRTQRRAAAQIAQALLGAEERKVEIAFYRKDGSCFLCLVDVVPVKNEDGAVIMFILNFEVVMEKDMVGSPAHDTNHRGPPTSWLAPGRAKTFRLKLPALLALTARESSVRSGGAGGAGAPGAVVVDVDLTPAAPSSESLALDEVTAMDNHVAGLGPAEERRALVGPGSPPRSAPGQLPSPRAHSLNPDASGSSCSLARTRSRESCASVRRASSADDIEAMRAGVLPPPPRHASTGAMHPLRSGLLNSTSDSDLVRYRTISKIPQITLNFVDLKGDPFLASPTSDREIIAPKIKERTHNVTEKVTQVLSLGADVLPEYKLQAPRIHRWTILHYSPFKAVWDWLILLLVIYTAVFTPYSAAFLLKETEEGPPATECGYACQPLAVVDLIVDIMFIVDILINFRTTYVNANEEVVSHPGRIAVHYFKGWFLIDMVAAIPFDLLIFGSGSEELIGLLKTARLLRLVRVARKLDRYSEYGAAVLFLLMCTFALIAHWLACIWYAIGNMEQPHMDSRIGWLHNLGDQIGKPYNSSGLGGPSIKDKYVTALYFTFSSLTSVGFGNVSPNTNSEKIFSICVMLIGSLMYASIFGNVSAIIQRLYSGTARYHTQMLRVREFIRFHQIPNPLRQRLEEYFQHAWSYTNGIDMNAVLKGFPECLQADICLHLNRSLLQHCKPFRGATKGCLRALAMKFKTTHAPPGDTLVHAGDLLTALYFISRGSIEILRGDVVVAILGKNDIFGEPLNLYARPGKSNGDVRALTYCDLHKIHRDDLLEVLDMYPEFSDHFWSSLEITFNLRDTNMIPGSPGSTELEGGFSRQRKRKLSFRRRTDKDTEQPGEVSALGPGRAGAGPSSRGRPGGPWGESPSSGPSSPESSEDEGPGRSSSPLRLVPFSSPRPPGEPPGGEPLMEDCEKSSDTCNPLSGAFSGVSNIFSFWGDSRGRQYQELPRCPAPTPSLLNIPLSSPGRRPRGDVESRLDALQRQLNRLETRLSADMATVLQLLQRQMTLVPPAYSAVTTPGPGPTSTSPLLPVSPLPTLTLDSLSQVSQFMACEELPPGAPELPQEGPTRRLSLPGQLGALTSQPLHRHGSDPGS
Chain of cGMP-inhibited 3',5'-cyclic phosphodiesterase 3A (Q14432 whole entry): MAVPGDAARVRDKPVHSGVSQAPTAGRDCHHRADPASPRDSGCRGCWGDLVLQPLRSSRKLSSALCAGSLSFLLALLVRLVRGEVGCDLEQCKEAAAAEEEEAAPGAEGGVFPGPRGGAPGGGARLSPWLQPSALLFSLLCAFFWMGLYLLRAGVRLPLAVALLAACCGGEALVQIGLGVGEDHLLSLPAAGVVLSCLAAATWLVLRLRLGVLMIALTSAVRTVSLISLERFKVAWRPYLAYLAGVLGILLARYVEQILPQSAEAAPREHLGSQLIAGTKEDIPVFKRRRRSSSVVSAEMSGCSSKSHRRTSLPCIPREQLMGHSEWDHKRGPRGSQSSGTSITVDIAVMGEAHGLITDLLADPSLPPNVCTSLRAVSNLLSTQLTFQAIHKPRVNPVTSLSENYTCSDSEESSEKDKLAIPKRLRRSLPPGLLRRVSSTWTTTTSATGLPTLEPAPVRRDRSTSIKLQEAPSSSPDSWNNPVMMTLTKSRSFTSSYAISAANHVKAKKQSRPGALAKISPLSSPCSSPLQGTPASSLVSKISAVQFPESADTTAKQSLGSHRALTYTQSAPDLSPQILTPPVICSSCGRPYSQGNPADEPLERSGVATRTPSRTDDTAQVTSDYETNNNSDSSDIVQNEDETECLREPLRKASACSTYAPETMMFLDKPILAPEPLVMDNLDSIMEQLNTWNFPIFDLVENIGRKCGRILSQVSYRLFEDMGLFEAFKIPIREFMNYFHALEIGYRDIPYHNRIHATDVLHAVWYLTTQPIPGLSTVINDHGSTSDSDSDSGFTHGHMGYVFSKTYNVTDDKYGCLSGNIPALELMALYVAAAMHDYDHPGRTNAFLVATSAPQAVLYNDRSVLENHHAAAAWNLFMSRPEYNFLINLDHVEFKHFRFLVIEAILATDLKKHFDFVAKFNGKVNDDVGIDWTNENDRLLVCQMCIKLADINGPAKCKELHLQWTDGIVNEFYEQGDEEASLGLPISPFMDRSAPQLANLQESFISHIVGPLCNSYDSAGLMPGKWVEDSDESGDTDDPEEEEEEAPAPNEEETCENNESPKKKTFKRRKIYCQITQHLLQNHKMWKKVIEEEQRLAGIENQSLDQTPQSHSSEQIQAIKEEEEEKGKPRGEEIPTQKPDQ
Chain of D(3) dopamine receptor (P35462 whole entry): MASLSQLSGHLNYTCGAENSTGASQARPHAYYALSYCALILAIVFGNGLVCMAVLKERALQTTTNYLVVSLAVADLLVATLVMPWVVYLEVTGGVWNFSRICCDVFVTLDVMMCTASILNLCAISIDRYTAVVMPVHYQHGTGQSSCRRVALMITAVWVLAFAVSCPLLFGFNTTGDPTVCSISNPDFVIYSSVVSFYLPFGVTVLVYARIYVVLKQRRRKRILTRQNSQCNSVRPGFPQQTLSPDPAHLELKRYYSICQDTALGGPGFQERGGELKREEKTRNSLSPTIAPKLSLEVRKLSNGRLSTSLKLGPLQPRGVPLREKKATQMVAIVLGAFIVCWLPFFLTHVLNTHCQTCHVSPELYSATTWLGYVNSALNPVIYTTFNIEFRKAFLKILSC
T5 sequence (P23219 whole entry): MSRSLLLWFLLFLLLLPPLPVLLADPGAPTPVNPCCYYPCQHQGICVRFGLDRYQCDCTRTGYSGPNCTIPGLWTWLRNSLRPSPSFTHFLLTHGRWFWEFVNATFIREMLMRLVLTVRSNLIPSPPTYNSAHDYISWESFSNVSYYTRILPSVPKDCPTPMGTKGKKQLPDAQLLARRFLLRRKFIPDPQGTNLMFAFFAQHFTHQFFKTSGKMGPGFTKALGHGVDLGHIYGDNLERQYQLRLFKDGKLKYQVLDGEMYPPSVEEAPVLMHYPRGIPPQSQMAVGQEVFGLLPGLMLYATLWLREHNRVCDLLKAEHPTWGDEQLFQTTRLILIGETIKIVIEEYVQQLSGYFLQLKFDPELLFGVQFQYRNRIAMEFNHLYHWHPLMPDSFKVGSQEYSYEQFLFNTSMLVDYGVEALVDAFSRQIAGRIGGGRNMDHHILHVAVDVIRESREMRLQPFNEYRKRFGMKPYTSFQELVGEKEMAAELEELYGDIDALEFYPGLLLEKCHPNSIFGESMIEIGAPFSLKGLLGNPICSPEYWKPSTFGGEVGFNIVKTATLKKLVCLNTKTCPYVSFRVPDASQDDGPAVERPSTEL
Chain of Acetylcholinesterase (P22303 whole entry): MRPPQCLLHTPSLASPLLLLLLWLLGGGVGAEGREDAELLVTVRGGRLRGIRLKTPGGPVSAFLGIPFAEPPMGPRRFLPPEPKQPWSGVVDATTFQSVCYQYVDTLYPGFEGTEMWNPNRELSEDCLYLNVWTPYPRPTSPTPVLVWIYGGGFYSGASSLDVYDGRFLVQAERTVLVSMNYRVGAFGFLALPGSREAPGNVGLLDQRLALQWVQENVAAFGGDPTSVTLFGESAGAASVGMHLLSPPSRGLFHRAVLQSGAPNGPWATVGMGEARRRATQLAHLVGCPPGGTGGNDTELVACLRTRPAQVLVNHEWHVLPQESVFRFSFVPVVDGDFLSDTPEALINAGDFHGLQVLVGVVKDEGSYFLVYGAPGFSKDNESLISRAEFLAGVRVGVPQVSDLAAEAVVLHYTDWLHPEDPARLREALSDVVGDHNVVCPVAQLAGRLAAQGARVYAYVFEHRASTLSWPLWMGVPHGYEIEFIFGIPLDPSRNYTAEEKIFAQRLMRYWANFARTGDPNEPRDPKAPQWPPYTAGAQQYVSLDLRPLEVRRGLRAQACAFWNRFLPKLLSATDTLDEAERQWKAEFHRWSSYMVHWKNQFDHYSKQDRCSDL
Chain of 3',5'-cyclic-AMP phosphodiesterase 4A (P27815 whole entry): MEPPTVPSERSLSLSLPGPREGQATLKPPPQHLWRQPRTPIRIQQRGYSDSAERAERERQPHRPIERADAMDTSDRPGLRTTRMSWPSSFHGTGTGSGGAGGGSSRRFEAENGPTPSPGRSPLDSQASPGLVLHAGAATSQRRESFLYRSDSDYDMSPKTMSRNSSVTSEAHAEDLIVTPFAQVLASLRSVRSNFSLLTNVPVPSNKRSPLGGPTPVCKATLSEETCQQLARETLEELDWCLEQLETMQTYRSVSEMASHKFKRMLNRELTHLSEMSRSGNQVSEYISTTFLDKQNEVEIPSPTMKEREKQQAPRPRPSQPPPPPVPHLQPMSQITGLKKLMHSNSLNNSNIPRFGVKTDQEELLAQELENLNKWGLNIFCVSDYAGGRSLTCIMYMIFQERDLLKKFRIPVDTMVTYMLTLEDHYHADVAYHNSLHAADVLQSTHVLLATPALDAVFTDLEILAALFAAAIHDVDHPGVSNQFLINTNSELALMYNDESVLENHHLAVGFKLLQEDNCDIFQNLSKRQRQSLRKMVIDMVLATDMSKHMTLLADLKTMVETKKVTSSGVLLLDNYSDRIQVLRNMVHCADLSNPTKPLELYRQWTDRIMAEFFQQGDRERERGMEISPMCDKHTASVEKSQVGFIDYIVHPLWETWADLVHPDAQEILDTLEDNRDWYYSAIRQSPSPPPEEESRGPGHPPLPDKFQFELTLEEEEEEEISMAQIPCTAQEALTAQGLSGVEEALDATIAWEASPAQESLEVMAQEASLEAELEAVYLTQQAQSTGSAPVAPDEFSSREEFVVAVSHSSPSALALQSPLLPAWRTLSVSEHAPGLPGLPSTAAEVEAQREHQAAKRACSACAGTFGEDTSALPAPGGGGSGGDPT

SMILES: O=NN(CCCl)C(=O)NCCCl [CARMUSTINE]
- AC50 [1]: > 30 µM
- AC50 [2]: > 30 µM
- AC50 (D(3) dopamine receptor): > 30 µM
- AC50 [3]: > 30 µM
- AC50 [4]: > 30 µM
- AC50 (Acetylcholinesterase): > 30 µM
- AC50 [5]: > 30 µM

SMILES: OCc1ccccc1 [BENZYL ALCOHOL]
- AC50 [6]: > 30 µM
- AC50 [1]: > 30 µM
- AC50 (Prothrombin): > 30 µM
- AC50 [7]: > 30 µM
- AC50 [2]: > 30 µM
- AC50 (D(3) dopamine receptor): > 30 µM
- AC50 [8]: > 30 µM
- AC50 (Thromboxane A2 receptor): > 30 µM
- AC50 [9]: > 30 µM
- AC50 [3]: > 30 µM
- AC50 [4]: > 30 µM
- AC50 [10]: > 30 µM
- AC50 (Acetylcholinesterase): > 30 µM
- AC50 [5]: > 30 µM
- AC50 [11]: > 30 µM

SMILES: CCC(=O)c1ccc2c(c1)N(CC(C)N(C)C)c1ccccc1S2 (configuration not stated) [PROPIOMAZINE]
- AC50 [8]: 0.685 µM

SMILES: COc1cccc2c1C(=O)c1c(O)c3c(c(O)c1C2=O)C[C@@](O)(C(=O)CO)C[C@@H]3O[C@H]1C[C@H](N)[C@H](O)[C@H](C)O1 [DOXORUBICIN]
- AC50 [6]: 15.5 µM
- AC50 [1]: > 30 µM
- AC50 (Prothrombin): > 30 µM
- AC50 [2]: > 30 µM
- AC50 (D(3) dopamine receptor): > 30 µM
- AC50 [8]: 5.63 µM
- AC50 (Thromboxane A2 receptor): 24.7 µM
- AC50 [9]: > 30 µM
- AC50 [3]: > 30 µM
- AC50 [4]: > 30 µM
- AC50 [10]: > 30 µM
- AC50 (Acetylcholinesterase): > 30 µM
- AC50 [5]: > 30 µM
- AC50 [11]: > 30 µM

SMILES: CC1(C)O[C@@H]2C[C@H]3[C@@H]4CCC5=CC(=O)C=C[C@]5(C)[C@@]4(F)[C@@H](O)C[C@]3(C)[C@]2(C(=O)CO)O1 [TRIAMCINOLONE ACETONIDE]
- AC50 [8]: > 30 µM

SMILES: CC(C)N1CCN(c2ccc(OCC3COC(Cn4cncn4)(c4ccc(Cl)cc4Cl)O3)cc2)CC1 (configuration not stated) [TERCONAZOLE]
- AC50 [6]: > 30 µM
- AC50 [1]: > 30 µM
- AC50 (Prothrombin): > 30 µM
- AC50 [7]: > 30 µM
- AC50 [2]: 10.9 µM
- AC50 (D(3) dopamine receptor): 7.12 µM
- AC50 [8]: 6.9 µM
- AC50 (Thromboxane A2 receptor): 20 µM
- AC50 [9]: > 30 µM
- AC50 [3]: > 30 µM
- AC50 [4]: 2 µM
- AC50 [10]: > 30 µM
- AC50 (Acetylcholinesterase): 16.5 µM
- AC50 [5]: > 30 µM
- AC50 [11]: > 30 µM

SMILES: C[C@]12CCC(=O)C=C1[C@@H]1C[C@@H]1[C@H]1[C@@H]3[C@@H]4C[C@@H]4[C@@]4(CCC(=O)O4)[C@@]3(C)CC[C@@H]12 [DROSPIRENONE]
- AC50 [8]: > 30 µM

SMILES: CN(C)CCC(O)(c1ccccc1)c1ccccc1Cl (configuration not stated) [CHLOPHEDIANOL]
- AC50 [8]: 3.4 µM

SMILES: COc1cccc2c1C(=O)c1c(O)c3c(c(O)c1C2=O)C[C@@](O)(C(=O)CO)C[C@@H]3O[C@H]1C[C@H](N)[C@@H](O)[C@H](C)O1 [EPIRUBICIN]
- AC50 [6]: 2.44 µM
- AC50 [1]: > 30 µM
- AC50 (Prothrombin): > 30 µM
- AC50 [2]: 25.2 µM
- AC50 (D(3) dopamine receptor): > 30 µM
- AC50 (Thromboxane A2 receptor): 8.17 µM
- AC50 [9]: > 30 µM
- AC50 [3]: > 30 µM
- AC50 [4]: > 30 µM
- AC50 [10]: > 30 µM
- AC50 (Acetylcholinesterase): 17 µM
- AC50 [5]: > 30 µM
- AC50 [11]: 19.3 µM

SMILES: NS(=O)(=O)c1cc2c(cc1Cl)NC(C(Cl)Cl)NS2(=O)=O (configuration not stated) [TRICHLORMETHIAZIDE]
- AC50 [6]: > 30 µM
- AC50 [1]: > 30 µM
- AC50 (Prothrombin): > 30 µM
- AC50 [7]: > 30 µM
- AC50 [2]: > 30 µM
- AC50 (D(3) dopamine receptor): > 30 µM
- AC50 (Thromboxane A2 receptor): > 30 µM
- AC50 [9]: > 30 µM
- AC50 [3]: > 30 µM
- AC50 [4]: > 30 µM
- AC50 [10]: > 30 µM
- AC50 (Acetylcholinesterase): > 30 µM
- AC50 [5]: > 30 µM
- AC50 [11]: > 30 µM
